“Also recorded” adds a separate entry of the source.
Tests used:
[1] = system: B. subtilis proteases; assay: Biological degradation of ComX in B. subtilis spent medium; type: in vitro ADME, Bacillus subtilis; details: spent CM medium max 7 h old; assumption from low protease content
Description: cells per unit volume (cell density), N(t) , and the time cells were producing the molecule, t . The molecule of interest can potentially get degraded by the degradation rate γ(t ). In the differential form and as a function of time one can express concentration of signal molecule SM(t) as:
dddddd (tt ) = PPdddd (tt ) NN (tt ) − γγ (tt )SSSS (tt ) eq S1 […]
spent medium obtained after 24 h of incubation with PS -216 wt (when the proteases accumulated in enough high concentration). In our case, however, the spent media were maxi mal 7 h old and the protease content of spent CM growth medium used in current study […]
(Supplementary Fig. 7). Therefore , we assumed that biological degradation of SM (ComX) is negligible under conditions in this study. Under the buffered conditions (as in CM growth […]
experiments where we applied our model. Therefore, in our modeling we assumed that degradation rate of SM is negligible (γ(t) ≈ 0) and the eq S 1 can be simplified to: […]
Normalized fluorescence intensity per cell Normalized fluorescence intensity per cell
Supplementary Figure 8: The second replicate (for first replicate, see Fig 5g,h) of the distribution of gene expression measured by single cell fluorescence microscopy. Gene expression level was measured as Na-fluoresceinate standard normalized mean fluorescence intensity per cells expressing comQ -yfp (a) and srfA -cfp (b). […]

[2] = system: srfA promoter in B. subtilis PS-216 (∆comQ, PsrfAA-yfp); assay: srfA promoter response (Yfp fluorescence per cell) to exogenously added ComX; type: cell-based, Bacillus subtilis
Description: In our model, the expression level of the srfA operon serves as a measure for the response (RM) to the signal molecule SM, represented by ComX. To study how RM depends on SM we evaluated promoter activity of srfA in the B. subtilis PS-216 (∆comQ, PsrfAA-yfp), which carries the markerless deletion of comQ[42] and is therefore signal-deficient. […] The response to SM was sigmoidal. […] We have therefore taken the 4 hours response curve (Fig. 4a) as a reference for further communication system analysis. The sigmoidal functions can typically describe the relationship between transcription factors and promoter activities, and can be modeled by the Hill equation[43],[44]. […] This agrees with the research showing that two molecules of the ComA homodimer cooperatively bind to the two promoter regions located upstream of the RNAP binding sites of srfA[13],[20],[45].
To quantify a response (RM) to different signal molecule (SM) concentrations at the population level we used the signal deficient B. subtilis PS-216 (∆comQ PsrfAA-yfp), which carries the comQ marker-less deletion and the srfA promoter tagged with the Yfp fluorescent reporter (Supplementary Table 1).
(final concentration of 50 µg mL^–1). […] The plate was placed on a microtiter plate shaker (1 mm orbit, 1100 rpm) that was positioned in the humidified chamber to eliminate sample evaporation. To improve the homogeneity of the conditions (airflow, temperature) on the microtiter plate the microtiter plate lids were elevated by 2 mm relative to the surface of microtiter plate. The plates were incubated at 37 °C for 3, 4, or 6 h. The cells were then re-suspended and fixed in 200 µL of 1% agarose containing DAPI dye (6 µg mL^−1).
For quantitative analysis we used laser confocal fluorescence microscopy (Zeiss, LSM 800). The images were acquired by two laser channels—488 nm laser for acquiring fluorescence from Yfp protein and 405 nm laser to acquire fluorescence from DAPI dye. The acquired images were 1024 × 1024 pixels in size with 16-bit color depth at 20× optical magnification (objective 20×/NA 0.4, Zeiss) and were analyzed with Fiji-ImageJ[59] custom script. Four images per well of microtiter plate were taken, each image contained about 350 cells. The measure for amount of Yfp on image was integrated density i.e., the product of mean fluorescence intensity and area taken by the cells. The response per cell was quantified as the ratio of image integrated density by the number of cells obtained from DAPI image.
The analytical form of the model equation for response per cell to the signal during bacterial growth in the fermenter batch system (Eq. 3, eq S11) was derived and fitted to the experimental data by the help of Wolfram Mathematica 11.0 (Wolfram Research, Inc.). […]

[3] = Aging of purified ComX stock solution followed by HPLC; type: physicochemical; details: 4 °C
Description: spectrometer (Bruker, Germany). FlexControl 3.3 software (Bruker, Germany) was used to control the instrument, FlexAnalysis 3.3 to process data and to calibrate spectra (Bruker, […]
two-sided), for about 2-fold compared to the original medium (Fig. S6b ). To further increase […]
recombinant proteins in E. coli and gained altogether significant 5-fold increase (P < 0.0001, t-value= 9.6, two- sided) compared to the original medium. The overnight LB E. coli ED367 culture, supplemented with 100 µg/mL of Amp, grown in 37 °C (200 rpm), was transferred to fresh TB medium (1 % inoculum) supplemented by 20 mM MgCl2 and 100 µg/mL of Amp.
After about 2 h and 45 min of incubation at 37 °C (200 rpm) when culture reached OD650 of […]., the spent growth medium was removed by culture centrifugation (5000 g, 5 min, room temperature). […]
β-galactosidase assay. […] To improve the sensitivity of the assay, the plates were then warmed to 30 °C, 25 μL ortho- nitrophenyl-β-galactoside (ONPG) substrate (8 mg/mL) was added and the absorbance (420 nm) in 1 min intervals was read using a Multiscan Spectrum […]
Supplementary Figure 5: Maximum normalized response measured as the srfA promoter activity of B. subtilis PS-216 (∆comQ, PsrfAA -yfp) (no signal production) to the exogenously added signal molecule, SM, (ComX). […]
SS buffer at 4 °C as measured by HPLC. […]

[4] = system: B. subtilis proteases; details: 24 h MSgg spent medium of PS-216 wt; 24 h incubation; ref Spacapan et al.22; cited from earlier work
Text: page 5: cells per unit volume (cell density), N(t) , and the time cells were producing the molecule, t . The molecule of interest can potentially get degraded by the degradation rate γ(t ). […] The protease content of CM growth medium used in t ...

[5] = system: ComX biosensor BD2876 (ΔcomQ, srfA-lacZ); assay: β-galactosidase response of ComX biosensor BD2876 to spent medium or added ComX; type: cell-based, Bacillus subtilis; details: ≈1 nM ComX in PS-216 ΔcomQ spent medium (positive control)
Description: Overnight cultures were grown in competence medium[57] (CM) supplemented with L-histidine, L-leucine, and L-methionine (50 μg mL^–1). Prior to fermenter inoculation, the cells were washed twice by replacing the spent medium of overnight culture with SS buffer[58]. Cell suspension was inoculated into 1.2 L of fresh CM (2% inoculum). Incubation was performed at 37 °C with mixing at 700 rpm and the closed off air flow. In instances where we tested O2 impact on SM concentration the medium was saturated with O2 by ensuring a supply of compressed air at a flow rate of 1 L min^-1. The dissolved O2 was measured using the O2 polarized electrode InPro 6820 (Mettler Toledo). No pH correction was performed or anti foaming agents were added.
control) ▲,,, or supplemented with the wt strain spent medium 10 times diluted by spent medium of the
ΔcomQ strain (experimental) ▲,,; The spent medium of the PS-216 (ΔcomQ) strain was obtained in the
parallel fermenter batch system. The strains PS-216 wt and PS-216 (ΔcomQ) were grown in the fermenter batch
system where oxygen supply was limited (a) or supplied to the saturation (b).
to 3 independent experiments.

ADPITRQWGD [ComX, isoprenylated (farnesylated) quorum sensing signal peptide of B. subtilis, HPLC purified from E. coli ED367]
Biological degradation in spent CM medium [1]: negligible | ComX concentration at which the highest response value is reached ([2]; 37 °C, CM medium, n = 4): around 10 nM | Shape of response to ComX ([2]; 4 h incubation, exogenously added ComX): sigmoidal | Lower limit response (LLR), critical ComX concentration required to induce quantifiable response ([2]; first significantly positive response (lower 95% confidence level > 0), 37 °C, CM medium): 0.2 to 0.5 nM | Km ([2]; read-out: Km, ComX concentration at which half of the maximum response is achieved, Hill fit (Eq. 2) of srfA promoter Yfp fluorescence per cell, CM medium, 37 °C, 3, 4 or 6 h incubation, BSA added, n = 4): 3 to 5 nM | Half-life time of ComX ([3]; purified ComX stock (typically 200 nM) in SS buffer with BSA 50 μg/mL, n = 8 independent experiments): about 50 days | Chemical stability ([3]; purified ComX, SS buffer): strong chemical stability | Degradation in MSgg spent medium [4]: significant level only after incubating ComX for 24 h; also recorded: can degrade | Biosensor BD2876 response to added purified ComX [5]: strongly responded

Reference: article PMC7794433, “Peptide signaling without feedback in signal production operates as a true quorum sensing communication system in Bacillus subtilis” (Communications Biology, 2021)
